Data from article PMC4397963, “Phospho-Tyrosine(s) vs. Phosphatidylinositol Binding in Shc Mediated Integrin Signaling” (American journal of molecular biology, 2015).
Entries after “also recorded” stand apart in the source; their conditions may differ.

What was measured:
full length Shc = details: ref [21], cited from earlier work
Excerpt: Since their discovery about two decades ago, PTB domains have been identified and structurally characterized within numerous multi-domain proteins. The ways they interact with their targets are strikingly versatile. The phosphorylated tyrosine is not always required for the high affinity interactions, and, in some cases, the binding motif might not even contain the tyrosine residue at all. PTB domains in general are also famous for the significant variance in their ligand binding affinities, ranging from 0.1 to 100 μM [17]. […] We were greatly surprised that we were not able to reproduce the data reported by George and co-workers, who have reported a tight dissociation constant (Kd of 0.7 μM) for the full length Shc. […] The conditions we tested include: i) Shc PTB domain at 12°C and 25°C in several different buffers (including exactly th ...

apo Shc PTB domain = assay: 15N-HSQC NMR titration of apo Shc PTB domain; type: binding; details: 15N-labelled apo PTB 100 – 200 μM, 50 mM Tris pH 7.5, 100 mM NaCl, 35°C; lipid to protein up to 15 to 1 (Ins(1,4,5)P3), 5 to 1 (PtdIns(4,5)P2)
Protocol: ^15N-labelled recombinant proteins were overexpressed in M9 medium supplemented with ^15NH4Cl as the sole nitrogen source. The same purification procedures as described above were followed. NMR samples of 100 – 200 μM were prepared in a buffer of 50 mM Tris, pH 7.5, 100 mM NaCl, 5 mM β-mercaptoethanol, 7% D2O, 1 mM 4,4-dimethyl-4-silapentane-1-sulfonic acid as the internal standard. ^15N-HSQC titration experiments were performed on a Varian/Agilent Inova 600 MHz spectrometer equipped with inverse-triple resonance cryo-probe at 35°C. All spectra were processed with NMRPipe and analyzed in CCPNmr Analysis software suite.
To find out the molecular details of these weak Shc-PtdIns interactions, we next employed NMR and performed ^15N-HSQC chemical shifts mapping experiments which are especially useful to define weak binding. […] Chemical shift perturbations, associated with the probes binding, were monitored. Overall, the observed shifts in Shc PTB resonance frequencies were small. However, they were concentration dependent, reproducible, and similar among the two PtdIns tested. […] The close-ups of 15N-HSQC spectra of PTB in the presence of PtdIns(4,5)P2, exemplifying the most shifted resonances, are shown in Figure 2. […] The first one, represented by the residues Q^148, S^149 and A^168, overlaps with the classical phosphotyrosine binding pocket of the protein-peptide binary complex. However, the canonical PTB fold cannot be formed without the stabilizing hydrophobic residue (pY-5) of the target peptide. Thus, in apo PTB domain Ins(1,4,5)P3 could only establish intermediate dynamic contacts with the amine functional groups of R^67 or Q^148 side chains. The second binding site, including the residues L^63, Q^76 and S^107, is formed at the interface of the second helix, the loop connecting the first beta strand with the second helix and the beginning of the second beta strand. This second PtdIns binding site is distinct from the second novel phosphotyrosine binding site we previously described for Shc PTB-bi-β3 complex, although it includes several overlapping residues. […]

[1] = biological target: T1, Shc PTB domain (17 – 207) (Homo sapiens, UniProt P29353); assay: ITC binding to Shc PTB domain; details: Shc PTB domain, 12°C and 25°C, several buffers incl. 50 mM Tris pH 8.0, 200 mM NaCl, 1 mM Dithiothreitol
T1 construct: The Shc PTB domain (17 – 207) containing the pET15b vector was transformed into a Rosetta (DE3) cell line; His-tag (N); made in house; host or cells: E. coli Rosetta (DE3), pET15b
T1 sequence (P29353 17-207 isoform P29353-2): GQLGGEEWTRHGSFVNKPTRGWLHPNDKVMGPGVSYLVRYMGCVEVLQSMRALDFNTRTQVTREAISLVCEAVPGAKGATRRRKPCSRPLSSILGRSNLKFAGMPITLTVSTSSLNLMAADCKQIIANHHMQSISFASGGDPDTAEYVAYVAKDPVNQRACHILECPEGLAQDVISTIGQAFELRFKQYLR
Protocol: (§1) The Shc PTB domain (17 – 207) containing the pET15b vector was transformed into a Rosetta (DE3) cell line to pursue optimal expression levels. SH2 domain (380 – 473) was cloned into NdeI and XhoI sites in pET21b vector and then transformed into a BL21 (DE3) cell line. The vector of pET28a-full length Shc (1 – 473), generously provided by Dr. Ladbury (University of Texas MD Anderson Cancer Center, TX), was expressed in a BL21 (DE3) cell line as well. Typically, 10 ml overnight culture was used to inoculate 1 liter LB broth. Cells were grown at 37°C until OD600 reached 0.6. At this point the culture was cooled to room temperature and then the overnight overexpression was induced by 1 mM isopropyl-β-D-thiogalactopyranoside. Harvested cells were kept at −20°C for future purification or resuspended in lysis buffer supplemented with protease inhibitors. Cells were further lysed by french press and the cell debris was removed by centrifugation at 18,000 rpm at 4°C. […] The overexpression of the target protein and the purified protein were confirmed by SDS-PAGE and the bands of the expected mass were observed. The determination of protein concentration by UV measurement was consistent with Bradford assay.
Calorimetric measurements of a full length Shc, PTB domain, and SH2 domain to β3 phosphopeptides or PtdIns were performed on a low volume Nano ITC (TA Instruments). All experiments were carried out in a buffer of 50 mM Tris, pH 7.5, 100 mM NaCl, 5 mM β-mercaptoethanol (unless described otherwise) at 12°C or 25°C with a stirring speed of 250 rpm to minimize the precipitation of the protein. 300 second time intervals were set between injections. The concentration of protein samples was determined by UV measurements. The titrants (β3 phosphopeptides or PtdIns) were prepared in the same buffer by the dilution of higher concentration stocks. The concentrations of the protein ranged from 30 μM to 150 μM. The concentration of protein was examined after each ITC experiment by UV to ensure the stability of proteins under the test condition. The analysis of the data was done with Nano Analyze Software (TA Instruments) suite using an “independent” model.

[2] = biological target: T2, full length Shc (1 – 473) (Homo sapiens, UniProt P29353); assay: ITC binding to full length Shc; details: full length Shc, 12°C and 25°C
T2 construct: The vector of pET28a-full length Shc (1 – 473), generously provided by Dr. Ladbury; His-tag (N); made in house; host or cells: E. coli BL21 (DE3), pET28a (vector a gift from Dr. Ladbury)
T2 sequence (P29353 1-473 isoform P29353-2): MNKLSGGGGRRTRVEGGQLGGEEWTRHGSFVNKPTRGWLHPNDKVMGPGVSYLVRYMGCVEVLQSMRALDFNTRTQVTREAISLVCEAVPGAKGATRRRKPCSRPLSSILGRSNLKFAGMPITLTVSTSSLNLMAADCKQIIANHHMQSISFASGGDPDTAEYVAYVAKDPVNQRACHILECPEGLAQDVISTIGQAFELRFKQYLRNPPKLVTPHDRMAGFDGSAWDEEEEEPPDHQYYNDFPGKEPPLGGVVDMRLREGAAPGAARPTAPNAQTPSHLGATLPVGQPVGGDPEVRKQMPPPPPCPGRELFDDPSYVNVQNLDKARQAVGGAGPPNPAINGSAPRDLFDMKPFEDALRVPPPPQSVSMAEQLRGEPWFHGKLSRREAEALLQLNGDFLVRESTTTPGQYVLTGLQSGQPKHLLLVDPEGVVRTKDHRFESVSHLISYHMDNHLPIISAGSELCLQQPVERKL
Protocol: as §1, with “The determination of protein concentration by UV measurement was consistent with Bradford assay.” left out
(§2) Calorimetric measurements of a full length Shc, PTB domain, and SH2 domain to β3 phosphopeptides or PtdIns were performed on a low volume Nano ITC (TA Instruments). […] The concentration of protein samples was determined by UV measurements. […]

[3] = test system: Shc SH2 domain (380 – 473); assay: ITC (and other) binding to Shc SH2 domain; details: 12°C and 25°C
Protocol: as §1, with “The determination of protein concentration by UV measurement was consistent with Bradford assay.” left out
as §2

O=P(O)(O)O[C@@H]1[C@H](O)[C@H](O)[C@@H](OP(=O)(O)O)[C@H](OP(=O)(O)O)[C@H]1O [Ins(1,4,5)P3, D-myo-Inositol-1,4,5-triphosphate]
Kd (full length Shc; 50 mM Tris, pH 8.0, 200 mM NaCl, 1 mM Dithiothreitol): 700 nM
relative binding strength (full length Shc): much tighter than the binding of the isolated Shc PTB domain alone to PtdIns(4,5)P2
15N-HSQC chemical shift perturbations (apo Shc PTB domain): minimal chemical shift perturbations for a handful of residues; also recorded: less pronounced compared to PtdIns(4,5)P2
binding by ITC [1]: No binding was found; also recorded: minimal Shc PTB binding; also recorded: does not show to bind
binding by ITC [2]: No binding was found; also recorded: does not
binding by ITC [3]: No binding was found; also recorded: does not show to bind
